Test results taken from patent publication US20200384135A1, “CANCER IMAGING WITH THERAPY: THERANOSTICS” (Virginia Commonwealth University, priority 2010, published 2020).

Key:
Type in all cases: in vivo, mice
[1] = tested on: breast cancer metastasis model, BCa-1; test: Cross-comparison of PEG-Prom-mediated SPECT imaging and FDG-PET; details: BCa-1, PET acquired same day as SPECT
Method: FIGS. 7A-7D. Detection and localization of metastatic masses of melanoma after the systemic administration of pPEG-HSV1 tk by SPECT-CT imaging. Transverse, coronal and sagittal views of co-registered SPECT-CT images of Mel-2 (7A) and Mel-3 (7B, 7C and 7D) from FIG. 6C. All images were obtained at 24 h after [^125I]FIAU injection, which was 70 h after the IV administration of pPEG-HSV1 tk/PEI polyplex. Gross anatomical details of the metastatic masses that were located based on the SPECT-CT images in 7A, 7B, 7C and 7D. Multiple metastatic sites were detected by SPECT-CT imaging in Mel-2 (7A, dotted circle). […] (7B) Accumulated radioactivity was detected adjacent to the thoracic mid-spine toward the left side (white arrow), which corresponded to a tumor mass at this location. […] Melanoma was uncovered immediately above the diaphragm (f, white dotted circle) and in the left inguinal lymph node, correlating with 7C and 7D. Cross-comparison of the PEG-Prom-mediated imaging and FDG-PET in abreast cancer metastasis model, BCa-1. Two nodules (Tu-1 and -2) were detected by [^125I]FIAU-SPECT near the heart and were confirmed by necropsy. […] SPECT images were acquired 48 h post-injection of [^125I]FIAU, which was 94 h after the pPEG-HSV1 tk/PEI delivery. The PET images were acquired on the same day as the SPECT data. […]

PC3-ML-Luc metastases [2] = test: FDG-PET/CT, intra-cardiac PC3-ML-Luc metastasis model; details: PCa-3, same mouse
Method: (§1) FIGS. 17A-E. AEG-Prom-based SPECT/CT imaging detects distant metastasis not identified by NaF- or FDG-PET/CT. The experimental metastases model, PCa-3 (n=5), was developed by intra-cardiac injection of 5×10^4 PC3-ML-Luc cells, SPECT/CT images for PCa-3 and a representative healthy control Ctrl-1 were obtained at 18-20 h after [^125I]FIAU injection, which was 66-68 h after IV administration of pAEG-HSV1tk-PEI polyplex. (17A, 17B) NaF-PET/CT, AEG-Prom SPECT/CT and FDG-PET imaging in Ctrl-1 (17A) and the PC3-ML-Luc model. PCa-3 (17B). (17D, 17E) Gross pathology of the metastatic nodules that were located on the basis of the SPECT/CT images. ([…]) Ex vivo BLI of the dissected organs, imaged within 20 min of euthanasia. […] A possible L1 lesion was detected by FDG/PET (17B). […]
(§2) Cloning of plasmid constructs. pPEG-Luc and pAEG-Luc were generated as described previously (3, 28). […] Luminescence was normalized for transfection efficiency by co-transfection with a vector expressing renilla luciferase, pGL4.74[hRluc/TK] […] After 48 h of transfection, the expression level of the Luc reporter was measured by the Dual Luciferase Reporter Assay kit (Promega). Luminescence was normalized for cell number (by μg total protein) using the BCA Protein Assay Kit (Pierce Biotechnology, Rockford, Ill.). […]

PC3-ML-Luc metastases [3] = test: NaF-PET/CT, intra-cardiac PC3-ML-Luc metastasis model; details: PCa-3
Method: as §1, §2

Structure (SMILES) | Detection of nodule Tu-2 (smaller nodule attached to the heart) [1] | Detection of metastatic lesions by FDG-PET/CT (PC3-ML-Luc metastases [2]) | Detection of metastatic lesions by NaF-PET/CT (PC3-ML-Luc metastases [3])
OC[C@H]1OC(O)[C@H]([18F])[C@@H](O)[C@@H]1O (stereo partly drawn) [FDG, [^18F]fluorodeoxyglucose] | not obvious in the PET image | only able to identify a lesion in the left shoulder | –
[18F-].[Na+] [NaF, [^18F]NaF] | – | – | failed to identify the metastases within tibia and axial skeleton
